The values that follow are results of earlier work, collected in patent US11992546B2, “Process of coloring keratinous material comprising the use of an organosilicon compound, an effect pigment, and a sealing reagent vi” (Henkel AG & Co. KGaA, priority 2019, dated 2024).

Read-outs that look alike come from different tables or passages of the source.

On to `O=S(=O)([O-])c1ccc(N=Nc2c(O)ccc3ccccc23)cc1.[Na+]` [Acid Orange 7, sodium salt of 4-[(2-hydroxy-1-naphthyl)azo]benzene sulphonate], for which the solubility in water result (25° C.) is recorded as “more than 7 g/L”. Turning to `Nc1cc(S(=O)(=O)[O-])cc2cc(S(=O)(=O)[O-])c(N=Nc3ccccc3)c(O)c12.[Na+].[Na+]` [Acid Red 33, disodium salt of 5-amino-4-hydroxy-3-(phenylazo)-naphthalene-2,7-disulphonate], the solubility in water (25° C.) is listed as 2.5 g/L. `O=C([O-])c1c(Cl)c(Cl)c(Cl)c(Cl)c1-c1c2c(Br)cc(=O)c(Br)c-2oc2c(Br)c(O)cc(Br)c12.O=C([O-])c1c(Cl)c(Cl)c(Cl)c(Cl)c1-c1c2c(Br)cc(=O)c(Br)c-2oc2c(Br)c(O)cc(Br)c12.[Na+].[Na+]` [Acid Red 92, disodium salt of 3,4,5,6-tetrachloro-2-(1,4,5,8-tetrabromo-6-hydroxy-3-oxoxanthen-9-yl)benzoic acid]: the solubility in water entry (25° C.) is given as “greater than 10 g/L”. Take `O=C([O-])C1=NN(c2ccc(S(=O)(=O)[O-])cc2)C(=O)C1N=Nc1ccc(S(=O)(=O)[O-])cc1.[Na+].[Na+].[Na+]` (stereo not shown) [Acid Yellow 23, trisodium salt of 4,5-dihydro-5-oxo-1-(4-sulfophenyl)-4-((4-sulfophenyl)azo)-1H-pyrazole-3-carboxylic acid]: for the setting “at 25° C.”, the “solubility in water” value was “highly soluble”.
